Structures can show the parent of a compound that is named as a salt. Where two headings read alike, the source gives them in different places.
Key:
[1] = test system: Oligodendrocyte progenitor cells (OPCs); assay: In vitro OPC differentiation assay, GPR17 expression (immunocytochemistry); settings: 72 hours; for GPR17 Fold Induction (Over Vehicle; 3 μM): 3 μM (10× concentration, final 0.3 μM)
[2] = test system: Oligodendrocyte progenitor cells (OPCs); assay: In vitro OPC differentiation assay, MBP expression (immunocytochemistry); settings: 72 hours of treatment; fold change over vehicle
PDGFRα = PDGFRα (Homo sapiens (Human), UniProt P16234); assay: PDGFRα kinase enzyme assay (Promega PDGFRα Kinase Enzyme System, ADP-Glo); assay type: biochemical; settings: 150 uM ATP
Outline: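 Read-out was ADP-Glo: remaining ATP depleted, ADP converted to luminescence and compared with a standard curve.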

[3] = test system: GPR17+ cells (newly differentiated oligodendrocytes); assay: In vivo OPC differentiation, GPR17+ cells in brain; settings: for fold induction at 3 mg/kg: Mus musculus, po, 24 h, read-out: GPR17 Fold Induction (Over Vehicle); for In vivo GPR17+ cells, GPR17 Fold Induction (Over Vehicle): adult female C57BL/6 mice, PO or IP, treatment period 1-3 days, entire brain, fold change over vehicle treated animals
[4] = 11-point dose response, 10,000 nM to 0.169 nM, BLQ = below limit of quantitation, read-out: IC50 Values on PDGFRα Kinase Inhibition, IC50
[5] = 5 μM (10× concentration, final 0.5 μM), fold change over vehicle
[6] = primary rat OPCs, 5 μM (10x; final 0.5 μM per method), percent GPR17+ cells as fold change over vehicle
[7] = 20 ng purified PDGFRα, Poly (Glu4Tyr1) substrate, two hours, 11-point dose response, read-out: IC50 Values on PDGFRα Kinase Inhibition

Chain of PDGFRα (P16234 24-1089): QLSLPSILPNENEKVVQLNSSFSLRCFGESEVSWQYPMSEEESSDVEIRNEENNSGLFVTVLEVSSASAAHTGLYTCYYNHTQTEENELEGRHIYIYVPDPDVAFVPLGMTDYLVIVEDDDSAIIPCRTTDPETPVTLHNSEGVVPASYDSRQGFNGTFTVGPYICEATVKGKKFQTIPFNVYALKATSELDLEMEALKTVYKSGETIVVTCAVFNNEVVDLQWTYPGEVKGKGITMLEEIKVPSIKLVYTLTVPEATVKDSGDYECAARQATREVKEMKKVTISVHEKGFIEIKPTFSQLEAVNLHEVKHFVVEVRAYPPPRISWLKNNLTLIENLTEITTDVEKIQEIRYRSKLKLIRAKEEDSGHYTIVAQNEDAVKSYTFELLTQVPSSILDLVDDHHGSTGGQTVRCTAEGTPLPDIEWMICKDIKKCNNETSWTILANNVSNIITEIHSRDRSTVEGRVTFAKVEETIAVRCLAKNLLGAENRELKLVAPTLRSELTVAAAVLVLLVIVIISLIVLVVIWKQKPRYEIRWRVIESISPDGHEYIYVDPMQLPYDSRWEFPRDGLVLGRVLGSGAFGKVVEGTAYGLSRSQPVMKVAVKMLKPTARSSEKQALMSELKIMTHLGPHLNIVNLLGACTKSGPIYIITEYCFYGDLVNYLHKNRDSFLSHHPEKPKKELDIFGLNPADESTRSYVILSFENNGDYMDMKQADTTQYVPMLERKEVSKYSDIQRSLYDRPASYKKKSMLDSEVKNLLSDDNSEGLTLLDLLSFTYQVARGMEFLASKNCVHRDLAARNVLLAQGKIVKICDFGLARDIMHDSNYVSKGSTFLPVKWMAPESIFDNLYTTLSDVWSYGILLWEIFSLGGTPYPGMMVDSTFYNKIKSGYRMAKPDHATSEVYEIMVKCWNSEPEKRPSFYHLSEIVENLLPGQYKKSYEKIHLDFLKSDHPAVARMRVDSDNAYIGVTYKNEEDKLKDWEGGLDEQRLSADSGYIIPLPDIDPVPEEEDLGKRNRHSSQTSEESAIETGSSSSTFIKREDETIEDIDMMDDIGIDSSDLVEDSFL

| GPR17 Fold Induction (Over Vehicle; 3 μM) ([1]; fold change over vehicle) | MBP Fold Induction (Over vehicle) [2] | IC50 (PDGFRα; [4]) | GPR17 Fold Induction (Over Vehicle; 5 μM) [1, 5] | In vivo GPR17+ cells, GPR17 Fold Induction (Over Vehicle) [3] | GPR17 Fold Induction (Over Vehicle; 5 μM) [1, 6] | IC50 (PDGFRα; [7]) | Structure (SMILES) | fold induction at 3 mg/kg [3] |
| --- | --- | --- | --- | --- | --- | --- | --- | --- |
| 4.57 | 4.88 | > 10000 nM |  |  |  |  | CN(Cc1ccccc1)S(=O)(=O)N1CCN(c2cnn3cc(-c4cnn(C)c4)ccc23)CC1 [Compound 158, N-benzyl-N-methyl-4-(6-(1-methyl-1H-pyrazol-4-yl)pyrazolo[1,5-a]pyridin-3-yl)piperazine-1-sulfonamide] |  |
| 5.00 | 1.82 | 3140 nM |  |  |  |  | C[C@@H](OC(=O)N1CCN(c2cnn3nc(-c4cnn(C)c4)ccc23)CC1)c1ccccc1 [Compound 50, (R)-1-phenylethyl 4-(6-(1-methyl-1H-pyrazol-4-yl)pyrazolo[1,5-b]pyridazin-3-yl)piperazine-1-carboxylate] |  |
| 10.59 | 2.96 | 320 nM | 6.99 |  |  |  | Cn1cc(-c2ccc3c(N4CCN(C(=O)OC5CCC5)CC4)cnn3c2)cn1 [Compound 32, cyclobutyl 4-[6-(1-methyl-1H-pyrazol-4-yl)pyrazolo[1,5-a]pyridin-3-yl]piperazine-1-carboxylate] |  |
| 9.41 | 4.26 | 925 nM | 3.20 |  |  |  | COCCn1cc(-c2ccc3c(N4CCN(c5ncc(Cc6ccccc6)cn5)CC4)cnn3c2)cn1 [Compound 29, 3-[4-(5-benzylpyrimidin-2-yl)piperazin-1-yl]-6-[1-(2-methoxyethyl)-1H-pyrazol-4-yl]pyrazolo[1,5-a]pyridine] |  |
| 7.08 | 1.92 | 685 nM | 5.22 |  |  |  | Cn1cc(-c2ccc3c(N4CCC(c5ncc(Cc6ccccc6)cn5)C4)cnn3c2)cn1 (stereo not drawn) [Compound 36, 3-[3-(5-benzylpyrimidin-2-yl)pyrrolidin-1-yl]-6-(1-methyl-1H-pyrazol-4-yl)pyrazolo[1,5-a]pyridine] |  |
| 4.88 | 14.20 | 2.69 nM |  |  |  |  | C[C@@H](OC(=O)N1CCN(c2cnn3cc(-c4cnn(C)c4)ccc23)CC1)c1ccc(F)c(F)c1 [Compound 266, (1R)-1-(3,4-difluorophenyl]ethyl 4-[6-(1-methyl-1H-pyrazol-4-yl)pyrazolo[1,5-a]pyridin-3-yl]piperazine-1-carboxylate] |  |
| 4.40 | 1.77 | 1650 nM | 3.50 |  |  |  | Cn1cc(-c2ccc3c(N4CCN(C(=O)Cc5ccccc5)CC4)cnn3c2)cn1 [Compound 18, 6-(1-methyl-1H-pyrazol-4-yl)-3-[4-(phenylacetyl)piperazin-1-yl]pyrazolo[1,5-a]pyridine] |  |
| 3.90 | 16.04 | 1190 nM |  |  |  |  | Cn1cc(-c2ccc3c(N4CCN(c5ncc(C(O)c6ccccc6)o5)CC4)cnn3c2)cn1 (stereo not drawn) [Compound 248, (2-(4-(6-(1-methyl-1H-pyrazol-4-yl)pyrazolo[1,5-a]pyridin-3-yl)piperazin-1-yl)oxazol-5-yl)(phenyl)methanol] |  |
| 6.75 | 0.49 | 1100 nM |  |  |  |  | Cn1cc(-c2ccc3c(N4CCN(c5ncc(Cc6c[nH]c7ccccc67)cn5)CC4)cnn3c2)cn1 [Compound 173, 3-[(2-{4-[6-(1-methylpyrazol-4-yl)pyrazolo[1,5-a]pyridin-3-yl]piperazin-1-yl}pyrimidin-5-yl)methyl]-1H-indole] |  |
| 9.66 | 25.00 | 5.27 nM |  |  |  |  | Cn1cc(-c2ccc3c(N4CCN(c5ncc(C(O)c6ccccc6)cn5)CC4)cnn3c2)cn1 (stereo not drawn) [Compound 71, (2-{4-[6-(1-Methyl-1H-pyrazol-4-yl)pyrazolo[1,5-a]pyridin-3-yl]piperazin-1-yl}pyrimidin-5-yl)(phenyl)methanol] |  |
| 8.56 | 2.58 | 1140 nM |  |  |  |  | c1ccc(Cc2cnc(N3CCN(c4cnn5cc(-c6cn[nH]c6)ccc45)CC3)nc2)cc1 [Compound 255, 3-[4-(5-benzylpyrimidin-2-yl)piperazin-1-yl]-6-(1H-pyrazol-4-yl)pyrazolo-[1,5-a]pyridine] |  |
| 9.32 | 10.35 | 467 nM |  |  |  |  | CC(C)(C)OC(=O)N1CCN(c2cnn3cc(-c4cnn(C5CCOCC5)c4)ccc23)CC1 [Compound 235] |  |
| 7.61 | 4.70 | 5280 nM |  |  |  |  | CC(C)Cc1cnc(N2CCN(c3cnn4cc(-c5cnn(C)c5)ccc34)CC2)nc1 [Compound 189, 3-(4-(5-isobutylpyrimidin-2-yl)piperazin-1-yl)-6-(1-methyl-1H-pyrazol-4-yl)pyrazolo[1,5-a]pyridine] |  |
| 3.97 |  | 2110 nM |  |  |  |  | Cn1cc(-c2ccc3c(N4CCN(C(=O)NCc5ccccc5)CC4)cnn3c2)cn1 [Compound 161, N-benzyl-4-(6-(1-methyl-1H-pyrazol-4-yl)pyrazolo[1,5-a]pyridin-3-yl)piperazine-1-carboxamide] | 1.81 |
|  |  |  |  | 9.23 | 3.61 | 370 nM | COc1ccc(N2Cc3cnc(Nc4ccc(F)cc4)nc3N([C@@H]3CC[C@@H](O)C3)C2=O)cc1 [RO4396686, reference compound] |  |
| 4.27 |  | 547 nM |  |  |  |  | C[C@@H](OC(=O)N1CCN(c2cnn3cc(-c4cnn(C)c4)ccc23)CC1)c1cccnc1 [Compound 315, (1R)-1-pyridin-3-ylethyl 4-[6-(1-methyl-1H-pyrazol-4-yl)pyrazolo[1,5-a]pyridin-3-yl]piperazine-1-carboxylate] | 1.05 |
| 4.97 |  | 153 nM |  |  |  |  | Cn1cc(-c2ccc3c(N4CCN(c5ncc([S+]([O-])c6ccccc6)cn5)CC4)cnn3c2)cn1 (stereo not drawn) [Compound 187, 6-(1-methyl-1H-pyrazol-4-yl)-3-(4-(5-(phenylsulfinyl)pyrimidin-2-yl)piperazin-1-yl)pyrazolo[1,5-a]pyridine] | 1.32 |
| 9.05 |  | 13 nM |  |  |  |  | CC(OC(=O)N1CCN(c2cnn3cc(-c4cnn(C)c4)ccc23)CC1)c1ccc(C(F)(F)F)c(F)c1 (stereo not drawn) [Compound 273, 1-(3-fluoro-4-(trifluoromethyl)phenyl)ethyl 4-(6-(1-methyl-1H-pyrazol-4-yl)pyrazolo[1,5-a]pyridin-3-yl)piperazine-1-carboxylate] | 3.78 |
| 7.07 | 16.83 |  |  |  |  |  | Cn1cc(-c2ccc3c(N4CCN(c5ncc(C(O)Cc6ccccc6)cn5)CC4)cnn3c2)cn1 (stereo not drawn) [Compound 167, 1-(2-{4-[6-(1-methyl-1H-pyrazol-4-yl)pyrazolo[1,5-a]pyridin-3-yl]piperazin-1-yl}pyrimidin-5-yl)-2-phenylethanol] |  |
| 7.82 |  | 8160 nM |  |  |  |  | Cn1cc(-c2ccc3c(N4CCC(c5ncc(Cc6ccccc6)cn5)CC4)cnn3c2)cn1 [Compound 148, 3-(4-(5-benzylpyrimidin-2-yl)piperidin-1-yl)-6-(1-methyl-1H-pyrazol-4-yl)pyrazolo[1,5-a]pyridine] | 1.22 |
|  |  |  |  | 3.52 | 2.94 | 115 nM | COCCOc1ccc2c(c1)ncn2-c1ccc2cccc(N3CCC(N)CC3)c2n1 [CP-673451, reference compound] |  |
| 4.87 |  | 1860 nM |  |  |  |  | Cn1cc(-c2ccc3c(N4CCN(c5ncc(Cc6ccco6)cn5)CC4)cnn3c2)cn1 [Compound 181, 3-(4-(5-(furan-2-ylmethyl)pyrimidin-2-yl)piperazin-1-yl)-6-(1-methyl-1H-pyrazol-4-yl)pyrazolo[1,5-a]pyridine] | 1 |
| 1.69 |  | 594 nM |  |  |  |  | CC(C)(C)OC(=O)N1CCN(c2cnn3cc(-c4cccnc4)ccc23)CC1 [Compound 217, tert-butyl 4-(6-(pyridin-3-yl)pyrazolo[1,5-a]pyridin-3-yl)piperazine-1-carboxylate] | 0.97 |
| 7.71 |  | 158 nM |  |  |  |  | C[C@@H](OC(=O)N1CCN(c2cnn3cc(-c4cnn(C)c4)ccc23)CC1)c1ccc(Cl)cc1Cl [Compound 270, (1R)-1-(2,4-dichlorophenyl)ethyl 4-[6-(1-methyl-1H-pyrazol-4-yl)pyrazolo[1,5-a]pyridin-3-yl]piperazine-1-carboxylate] | 1.92 |
|  |  |  |  | 17.89 | 6.58 | 1360 nM | COc1cc2c(Oc3ccc4[nH]c(C)cc4c3F)ccnc2cc1OCC1(N)CC1 [Anlotinib HCl, anlotinib HCl, reference compound] |  |

— US20250129067A1 (Progentos Therapeutics, Inc., priority 2021, published 2025)
